The text below walks through data of patent US11884685B2, “Rhenium complexes and methods of use for treating cancer” (CORNELL UNIVERSITY, priority 2018, dated 2024).

For experiment [1], the system named is A2780 (ovarian cancer) cells. Briefly: MTT cell viability (cytotoxicity). The class given is cell-based. The conditions noted are these: 48 hours incubation. The procedure:
(§1) All compounds were dissolved in PBS at pH 7.4 to prepare 1-2 mM stock solutions. For cell viability studies, all cells were grown to 80-90% confluence, detached with trypsin/EDTA, seeded in 96-well plates at 4000-8000 cells/well in 100 μL of growth media, and incubated for 24 hours. The medium was removed and replaced with fresh medium (200 μL) containing varying dilutions of either the rhenium compounds, cisplatin, or media. The cells were then incubated for 48 hours. The medium was removed from the wells, and 3-(4,5-dimethylthiazol-2-yl)-[…] (MTT) in DMEM, RPMI, or MEM (200 μL, 1 mg/mL) was added. The additional 48 hours incubation was performed to ensure that the cells were in the logarithmic growth phase and that the cells had adequate time to regrow after exposure to the complexes. After 4 hours, the MTT/DMEM, RPMI, or MEM solution was removed, and the formazan crystals were dissolved in 200 μL of an 8:1 mixture of DMSO and pH 10 glycine buffer. The absorbance at 570 nm in each well was measured using a BioTek Synergy HT plate reader. Cell viability was determined by normalizing the absorbance of the treated wells to untreated wells. The % viability data shown is an average of three independent experiments with six replicates per concentration

In experiment [2] the test system is A2780CP70 (cisplatin-resistant ovarian cancer) cells. Briefly: MTT cell viability (cytotoxicity). It is filed as cell-based. As to conditions: 48 hours incubation, read-out: IC50 A2780 CP70 (cisplatin-resistant ovarian cancer). The procedure:
as §1

Experiment [3] concerns A549 (lung cancer) cells. Briefly: MTT cell viability (cytotoxicity). The class given is cell-based. As to conditions: 48 hours incubation. The procedure: as §1
For experiment [4], the system named is HEK293 (kidney) cells. Kind of experiment: MTT cell viability (cytotoxicity). It is filed as cell-based. As to conditions: 48 hours incubation, non-cancer cell line. The procedure:
as §1

In experiment [5] the test system is HeLa (cervical cancer) cells. Kind of experiment: MTT cell viability (cytotoxicity). It is filed as cell-based. The conditions noted are these: 48 hours incubation. The procedure: as §1
For experiment [6], the system named is A2780 cells. From the text: (§2) Salubrinal operates by inhibiting dephosphorylation of the master regulatory protein eukaryotic initiation factor 2α (eIF2α), an integral component of the UPR. […] Next, the downstream effects of eIF2α phosphorylation were investigated. The most immediate and pronounced effect of eIF2α phosphorylation is the inhibition of translation (S. R. Kimball, Int. J. Biochem. Cell Biol. 1999, 31, 25-29).

Experiment [7] has as its system mutant MEF cell line incapable of eIF2α phosphorylation. As to conditions: mutant cells after treatment.
Text: as §2

The test system of experiment [8] is eIF2α phosphorylation, ATF4, CHOP in A2780 cells.
Text: as §2
(§3) Hyperphosphorylation of eIF2α can lead to apoptosis via upregulation of the stress-related transcription factors ATF4 and CHOP (H. Matsumoto et al., Biol. Open 2013, 2, 1084-1090). […] Phosphorylation of eIF2α also results in cell cycle arrest in the G1 phase (J. W. Brewer et al., Proc. Natl. Acad. Sci. U.S.A. 2000, 97, 12625-12630).

For experiment [9], the system named is cells. As to conditions: vs untreated cells.
Text: as §3

For experiment [10], the system named is HeLa cells. As to conditions: 5 μM, within 30 minutes, vs untreated cells. From the text: Phosphorylation of eIF2α often occurs due to the accumulation of misfolded proteins.
Experiment [11] relates to National Cancer Institute (NCI)-60 cell line panel.
Experiment [12] relates to cytochrome c release from the mitochondria. The conditions noted are these: flow cytometry. A general note: In flow cytometry, cells or beads pass a laser one at a time.
For experiment [13], the system named is HeLa cells.
Experiment [14] relates to LC3 in A2780 cells. The conditions noted are these: after 24 hours.
Experiment [15] has as its system proteasome inhibition, HSP90 inhibition, reactive oxygen species generation.

As for `N.N.[Cl][Pt][Cl]` [Cisplatin, cisplatin], the IC50 (usually the point on the concentration scale where inhibition reaches its midpoint) in experiment [1] amounted to 1300 ± 100 nM; in [2], 12 ± 3 µM; in experiment [3] it was 5.6 ± 0.5 µM; in [4], 1700 ± 200 nM; in experiment [5], 6.6 ± 0.7 µM.

As for `Cc1ccc2ccc3ccc(C)nc3c2n1.[C-]#[O+].[C-]#[O+].[C-]#[O+].[Re+]` [Neo-Re, [Re(CO)3(dmphen)(OH2)]^+], the IC50 in experiment [1] stood at 5700 ± 600 nM; in experiment [2] it was 6 ± 0.2 µM; in experiment [3], 7.7 ± 2.4 µM; in experiment [4] it was 9000 ± 300 nM; in [5], 4.4 ± 1.3 µM.

Take [Re(CO)3(dmphen)(p-tol-ICN)]Cl [TRIP]: the IC50 worked out at 1700 ± 700 nM in experiment [1]; 1.9 ± 1 µM in experiment [2]; 1.4 ± 0.6 µM in experiment [3]; 1900 ± 200 nM in [4]; 1.4 ± 0.2 µM in experiment [5]. The “puromycin incorporation (translation)” value in experiment [6] (5 μM, as early as 2 hour post incubation, vs untreated controls) is given as “substantially less puromycin”. Besides, the “factor of increase in activity in presence of salubrinal” value in experiment [6] (25 μM salubrinal) amounted to 4. In addition, the “translation levels in eIF2α mutant MEF cells” value in experiment [7] is “no changes in translation levels”. For the same molecule, the “ATF4 and CHOP expression” value in [8] (Western blot) was “both ATF4 and CHOP were upregulated”. For the same molecule, the eIF2α phosphorylation result in experiment [8] (as little as 2 hours after exposure) is “induction of eIF2α phosphorylation”. In addition, the “increase in population of cells in the G1 phase” value in experiment [9] is reported as 18%. Also, in experiment [10], the “fluorescence intensity of ThT (protein aggregates)” value is “increased significantly”. Further, the “activity across NCI-60 cell line panel” value in [11] was “most potent in melanoma and breast cancer cells lines and least effective in lung and renal cancer cell lines”. The “cytochrome c release from mitochondria” value in experiment [12] is “Cytochrome c release occurs on the same time scale as apoptosis induction”. Moreover, the mitochondrial morphology entry in [13] (HeLa cells, 5 μM, after only 30 minutes) was “significantly rounded and punctate”. The “mitochondrial polarization (JC-1)” value in [13] (ratiometric sensor JC-1) is reported as “mitochondria remained functional”. The “LC3II expression relative to LC3I” value in experiment [14] is listed as “large increase in LC3II expression relative to LC3I”. Further, in experiment [15], the “protein misfolding via proteasome inhibition, HSP90 inhibition, or ROS generation” value was “no evidence has been found”.
